Assay results reported in publication PMC2797373 (Bioorganic & medicinal chemistry, 2009).

Legend:
[1] = cited from earlier work
[2] = cited from earlier work; remark: listed apart in the source
human A2AAR = human A2AAR (Homo sapiens, UniProt P29274); assay: Radioligand binding at human A2AAR expressed in CHO cells; conditions: read-out: % inhibition at 1 µM (hA2AAR)
[3] = molecular target: T1, human A3 adenosine receptor (Homo sapiens, UniProt P0DMS8); format: cell-based; conditions: transfected CHO cells
T1 sequence (P0DMS8 1-318): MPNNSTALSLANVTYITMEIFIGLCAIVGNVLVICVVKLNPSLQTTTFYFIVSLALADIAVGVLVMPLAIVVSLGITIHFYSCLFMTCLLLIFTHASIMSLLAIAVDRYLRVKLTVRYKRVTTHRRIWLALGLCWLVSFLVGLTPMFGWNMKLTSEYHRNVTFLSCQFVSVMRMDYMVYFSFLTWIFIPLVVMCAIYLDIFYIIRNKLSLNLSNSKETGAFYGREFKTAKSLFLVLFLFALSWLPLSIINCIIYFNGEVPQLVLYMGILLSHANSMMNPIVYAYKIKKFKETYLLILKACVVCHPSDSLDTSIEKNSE

Sequence of human A2AAR (P29274 whole entry): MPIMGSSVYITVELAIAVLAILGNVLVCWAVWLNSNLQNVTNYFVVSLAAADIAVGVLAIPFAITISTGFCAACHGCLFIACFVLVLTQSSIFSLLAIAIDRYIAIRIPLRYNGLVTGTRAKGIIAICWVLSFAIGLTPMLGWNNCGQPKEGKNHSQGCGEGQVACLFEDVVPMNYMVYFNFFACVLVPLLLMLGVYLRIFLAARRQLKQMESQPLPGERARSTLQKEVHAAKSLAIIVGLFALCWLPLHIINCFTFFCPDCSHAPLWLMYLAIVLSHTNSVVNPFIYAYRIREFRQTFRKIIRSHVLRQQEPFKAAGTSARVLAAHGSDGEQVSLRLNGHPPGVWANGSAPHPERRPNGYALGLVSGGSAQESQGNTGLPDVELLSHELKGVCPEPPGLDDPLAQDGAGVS

SMILES	inhibition at 1 µM (human A2AAR) [%]	other results
CNC(=O)[C@H]1S[C@@H](n2cnc3c(NCc4cccc(I)c4)nc(Cl)nc32)[C@H](O)[C@@H]1O [Compound 3, thio-Cl-IB-MECA]	–	In vitro anticancer activity [1]: potent; In vivo anticancer activity [2]: potent
CNC(=O)[C@H]1S[C@@H](n2cnc3c(NC)nc(Cl)nc32)[C@H](O)[C@@H]1O [Compound 4, reference compound]	20	–
CNC(=O)[C@H]1S[C@@H](n2cnc3c(NC)ncnc32)[C@H](O)[C@@H]1O [Compound 5a, N^6-Methyl-9-(5’-methylaminocarbonyl-4’-thio-β-D-ribofuranosyl)adenine]	35 ± 8	–
CCNC(=O)[C@H]1S[C@@H](n2cnc3c(NC)ncnc32)[C@H](O)[C@@H]1O [Compound 5b, 9-(5’-Ethylaminocarbonyl-4’-thio-β-D-ribofuranosyl)-N^6-methyladenine]	20	–
CNc1ncnc2c1ncn2[C@@H]1S[C@H](C(=O)NCC2CC2)[C@@H](O)[C@H]1O [Compound 5d, 9-(5’-Cyclopropylmethylaminocarbonyl-4’-thio-β-D-ribofuranosyl)-N^6-methyladenine]	38 ± 5	–
CNc1ncnc2c1ncn2[C@@H]1S[C@H](C(=O)NC2CCCC2)[C@@H](O)[C@H]1O [Compound 5f, 9-(5’-Cyclopentylaminocarbonyl-4’-thio-β-D-ribofuranosyl)-N^6-methyladenine]	45 ± 1	–
CNc1ncnc2c1ncn2[C@@H]1S[C@H](C(=O)NCc2cccc(I)c2)[C@@H](O)[C@H]1O [Compound 5g, 9-[(5’-(3-Iodo-benzylaminocarbonyl)-4’-thio-β-D-ribofuranosyl)]-N^6-methyladenine]	27 ± 10	–
CNC(=O)[C@H]1S[C@@H](n2cnc3c(NCc4cccc(I)c4)ncnc32)[C@H](O)[C@@H]1O [Compound 5h, N^6-(3-Iodo-benzyl)-9-(5’-methylaminocarbonyl-4’-thio-β-D-ribofuranosyl)adenine]	–	Agonist efficacy at human A3AR (inhibition of cyclic AMP) [3]: full agonist
O=C(NC1CCCCC1)[C@H]1S[C@@H](n2cnc3c(NCc4cccc(I)c4)ncnc32)[C@H](O)[C@@H]1O [Compound 5m, 9-(5’-Cyclohexylaminocarbonyl-4’-thio-β-D-ribofuranosyl)-N^6-(3-iodobenzyl)adenine]	24 ± 7	–
O=C(NCc1cccc(F)c1)[C@H]1S[C@@H](n2cnc3c(NCc4cccc(I)c4)ncnc32)[C@H](O)[C@@H]1O [Compound 5n, 9-[5’-(3-Fluoro-benzylaminocarbonyl-4’-thio-β-D-ribofuranosyl)]-N^6-(3-iodobenzyl)adenine]	35 ± 8	–
O=C(NCc1cccc(Cl)c1)[C@H]1S[C@@H](n2cnc3c(NCc4cccc(I)c4)ncnc32)[C@H](O)[C@@H]1O [Compound 5o, 9-[5’-(3-Chloro-benzylaminocarbonyl-4’-thio-β-D-ribofuranosyl)]-N^6-(3-iodobenzyl)adenine]	44 ± 1	–
Cc1ccccc1CNC(=O)[C@H]1S[C@@H](n2cnc3c(NCc4cccc(I)c4)ncnc32)[C@H](O)[C@@H]1O [Compound 5p, N^6-(3-Iodo-benzyl)-9-[5’-(2-methyl-benzylaminocarbonyl-4’-thio-β-D-ribofuranosyl)]adenine]	26 ± 10	–
Cc1cccc(CNC(=O)[C@H]2S[C@@H](n3cnc4c(NCc5cccc(I)c5)ncnc43)[C@H](O)[C@@H]2O)c1 [Compound 5q, N^6-(3-Iodo-benzyl)-9-[5’-(3-methyl-benzylaminocarbonyl-4’-thio-β-D-ribofuranosyl)]adenine]	31 ± 1	–
Cc1ccc(CNC(=O)[C@H]2S[C@@H](n3cnc4c(NCc5cccc(I)c5)ncnc43)[C@H](O)[C@@H]2O)cc1 [Compound 5r, N^6-(3-Iodo-benzyl)-9-[5’-(4-methyl-benzylaminocarbonyl-4’-thio-β-D-ribofuranosyl)]adenine]	37	–
COc1ccccc1CNC(=O)[C@H]1S[C@@H](n2cnc3c(NCc4cccc(I)c4)ncnc32)[C@H](O)[C@@H]1O [Compound 5s, N^6-(3-Iodo-benzyl)-9-[5’-(2-methoxy-benzylaminocarbonyl-4’-thio-β-D-ribofuranosyl)]adenine]	28 ± 9	–
CCOc1ccccc1CNC(=O)[C@H]1S[C@@H](n2cnc3c(NCc4cccc(I)c4)ncnc32)[C@H](O)[C@@H]1O [Compound 5t, 9-[5’-(2-Ethoxy-benzylaminocarbonyl-4’-thio-β-D-ribofuranosyl)]-N^6-(3-iodobenzyl)adenine]	23 ± 8	–
O=C(NCCc1ccccc1)[C@H]1S[C@@H](n2cnc3c(NCc4cccc(I)c4)ncnc32)[C@H](O)[C@@H]1O [Compound 5v, N^6-(3-Iodo-benzyl)-9-[5’-(2-phenetylaminocarbonyl-4’-thio-β-D-ribofuranosyl)]adenine]	11	–
